Read-outs that look alike come from different tables or passages of the source.
Assays:
[1] = system: EL4 cells; assay: Inhibition of cell surface sialylation, lectin staining and flow cytometry, EL4 cells; format: cell-based, murine; settings: Mus musculus, 72 h, three days
Experimental: (§1) Mouse B16-F10 melanoma cells (ATCC CRL-6475) were cultured in Minimum Essential Medium (MEM) (Gibco, Invitrogen, Carlsbad, Calif.) containing 5% fetal bovine serum (FBS) (Greiner Bio-one, Frickenhausen, Germany), 1% MEM non-essential amino acids (Gibco), 0.15% sodium bicarbonate (Gibco), 1 mM sodium pyruvate (Gibco), 1.5% MEM vitamins (Gibco), 1% antibiotic-antimycotic solution (50 U/ml penicillin, 50 μg/ml streptomycin and 125 ng/ml amphotericin B) (Gibco). The murine 9464D neuroblastoma cell line was cultured in Dulbecco's Modified Eagle's Medium (DMEM, Glutamax, Gibco) with 10% FBS, 1% non-essential amino acids, 50 μM 2-mercaptoethanol (Sigma-Aldrich) and 1% antibiotic-antimycotic solution (Kroesen et al., 2014, DOI: 10.1002/ijc.28463, Stauffer et al., 2012, DOI: 10.3109/07357907.2012.664670). The murine EL4 T lymphocyte cell line (ATCC TIB-39) was cultured in Iscove's Modified Dulbecco's Medium (IMDM, Gibco) supplemented with 5% FBS and 1% antibiotic-antimycotic solution. Human HEK293 (ATCC CRL-1573) kidney cells and human HeLa (ATCC CCL-2) cervical cancer cells were cultured in DMEM containing 10% FBS, 2 mM glutamine (Lonza, Walkersville, Md.) and 1% antibiotic-antimycotic solution. Human monocytic THP-1 cells (TIB-202, ATCC) were cultured in RRMI-1640 medium (Gibco) supplemented with 10% FBS, 2 mM glutamine and 1% antibiotic-antimycotic solution. All cell lines were cultured in a humidified 5% CO2 incubator at 37° C.
(§2) To assess the effect of the synthesized compounds on cell surface sialylation, different murine and human cell lines were cultured for three days in the presence of 0-204.8 μM amide and carbamate fluorine sialic acids. Cells treated with an equal final percentage of DMSO were used as control and all cells were subjected to lectin staining and flow cytometry as described below. To investigate the longevity of the effect of the fluorine sialic acids on cell surface sialylation, B16-F10 cells treated with 25.6 μM or 51.2 μM were thoroughly washed with medium to remove fluorine sialic acids from the culture and reseeded. During a period of six days, cells were harvested every day and sialylation was assessed by flow cytometry.
(§3) For the lectin staining, all cells were harvested and washed with 1× carbo-free blocking solution (Vector Laboratories, Inc., Burlingame, Calif., USA) and stained for 45 minutes at 4° C. in 1× carbo-free blocking solution containing 1 mM CaCl2), 1 mM MgCl2 and biotinylated MALII (5 μg/ml), SNA-1 (1 μg/ml) or PNA (5 μg/ml) all obtained from Vector Laboratories Inc. MALII recognizes α2,3-linked sialic acids, SNA-1 recognizes α2,6-linked sialic acids and PNA binds to terminal 3-galactose. In addition, B16-F10 cells were stained with 2 μg/ml biotinylated AAL (α-linked Fucose), LCA (α-linked Mannose), PHA-L (complex glycans), GSL-I (α-linked Galactose and N-Acetylgalactosamine), WGA (chitobiose), SJA (β-linked Galactose and N-Acetylgalactosamine) and PSA (Glucose and Mannose) purchased from Vector Laboratories Inc. Next, the cells were washed thrice in PBA (1×PBS, 1% BSA, and 0.02% sodium azide) and stained for 10 minutes at 4° C. with 2 μg/ml streptavidin-phycoerythrin (PE) (BD Pharmingen, Franklin Lakes, N.J., USA). The cells were washed thrice again with PBA and fluorescence was assessed using a CyAn ADP flow cytometer (BD Biosciences, San Jose, Calif.) followed by analysis with FlowJo software (Tree Star Inc., Ashland, Oreg.). Untreated cells stained with streptavidin-PE only served as background fluorescence control. The percentages lectin binding was calculated by normalizing the mean fluorescence intensity values from the treated cells with the DMSO controls.
(§4) IC50 values and statistics were calculated using Prism 5.03 (GraphPad Software, Inc., La Jolla, Calif.). Statistical significance between the different groups was calculated using one-way ANOVA followed by Bonferroni post-hoc testing and P-values<0.05 were considered significant (p<0.05 *, p<0.01 **, p<0.001 ***). […]

[2] = system: HEK293 cells; assay: Inhibition of cell surface sialylation, lectin staining and flow cytometry, HEK293 cells; format: cell-based, Human; settings: Homo sapiens, 72 h, three days
Experimental: as §1, §2, §3, §4

[3] = system: HeLa cells; assay: Inhibition of cell surface sialylation, lectin staining and flow cytometry, HeLa cells; format: cell-based, human; settings: Homo sapiens, 72 h, three days
Experimental: as §1, §2, §3, §4

[4] = system: B16-F10 cells; assay: Inhibition of cell surface sialylation, lectin staining and flow cytometry, B16-F10 cells; format: cell-based, Mouse; settings: Mus musculus, 72 h, three days
Experimental: as §1, §2, §3, §4

[5] = system: 9464D cells; assay: Inhibition of cell surface sialylation, lectin staining and flow cytometry, 9464D cells; format: cell-based, murine; settings: Mus musculus, 72 h, three days
Experimental: as §1, §2, §3, §4

[6] = system: THP-1 cells; assay: Inhibition of cell surface sialylation, lectin staining and flow cytometry, THP-1 cells; format: cell-based, Human; settings: Homo sapiens, 72 h, three days
Experimental: as §1, §2, §3, §4

[7] = MALII lectin binding, read-out: α2,3-Sia IC50
[8] = SNA-I lectin binding, read-out: α2,6-Sia IC50

| IC50 [1, 7] [µM] | IC50 [1, 8] [µM] | IC50 [3, 7] [µM] | IC50 [3, 8] [µM] | IC50 [4, 7] [µM] | IC50 [4, 8] [µM] | IC50 [5, 7] [µM] | IC50 [5, 8] [µM] | IC50 [6, 7] [µM] | IC50 [6, 8] [µM] | Structure (SMILES) | IC50 [2, 7] [µM] | IC50 [2, 8] [µM] |
| --- | --- | --- | --- | --- | --- | --- | --- | --- | --- | --- | --- | --- |
| > 102 | > 102 | 62.3 ± 3.91 | 51.2 ± 6.06 | 40.6 ± 5.67 | 52.5 ± 4.31 | > 102 | > 102 | 10.4 ± 2.14 | 12.6 ± 3.51 | C#CCCC(=O)N[C@@H]1C(OC(C)=O)C(F)C(OC(C)=O)(C(=O)OC)OC1[C@H](OC(C)=O)[C@@H](COC(C)=O)OC(C)=O (stereo partly drawn) [SiaFPen, Methyl 5-(4-pentynacetamido)-2,4,7,8,9-penta-O-acetyl-3,5-dideoxy-3-fluoro-D-glycero-β-galacto-non-2-ulopyranosonate, reference compound] | 26.2 ± 2.37 | 44.7 ± 4.33 |
| 59.2 ± 4.17 | 52.7 ± 5.45 | 6.33 ± 3.26 | 5.23 ± 1.88 | 4.89 ± 0.25 | 7.54 ± 1.34 | 18.3 ± 2.67 | 29.6 ± 4.67 | 1.98 ± 0.91 | 2.65 ± 1.6 | COC(=O)N[C@@H]1C(OC(C)=O)C(F)C(OC(C)=O)(C(=O)OC)OC1[C@H](OC(C)=O)[C@@H](COC(C)=O)OC(C)=O (stereo partly drawn) [SiaFMe, Methyl 5-(methylcarbamado)-2,4,7,8,9-penta-O-acetyl-3,5-dideoxy-3-fluoro-D-glycero-β-galacto-non-2-ulopyranosonate] | 3.31 ± 1.24 | 4.77 ± 2.8 |
| – | – | – | – | 25.5 ± 2.53 | 32.4 ± 1.38 | – | – | – | – | COCCOC(=O)N[C@@H]1C(OC(C)=O)C(F)C(OC(C)=O)(C(=O)OC)OC1[C@H](OC(C)=O)[C@@H](COC(C)=O)OC(C)=O (stereo partly drawn) [SiaFMox, Methyl 5-(2-methoxy-ethylcarbamado)-2,4,7,8,9-penta-O-acetyl-3,5-dideoxy-3-fluoro-D-glycero-R-galacto-non-2-ulopyranosonate] | – | – |
| > 102 | > 102 | 25.5 ± 2.61 | 33.4 ± 4.38 | 14.3 ± 0.77 | 33.3 ± 2.63 | 46.5 ± 4.41 | > 102 | 3.3 ± 1.26 | 7.19 ± 3.6 | COC(=O)C1(OC(C)=O)OC([C@H](OC(C)=O)[C@@H](COC(C)=O)OC(C)=O)[C@H](NC(=O)C(F)(F)F)C(OC(C)=O)C1F (stereo partly drawn) [SiaFTFA, Methyl 5-(trifluoroacetamido)-2,4,7,8,9-penta-O-acetyl-3,5-dideoxy-3-fluoro-D-glycero-β-galacto-non-2-ulopyranosonate, reference compound] | 42.8 ± 2.38 | 41.4 ± 10.4 |
| 51 ± 8.62 | 51.6 ± 2.62 | 1.65 ± 2.27 | 1.37 ± 0.81 | 0.72 ± 0.2 | 2.59 ± 0.07 | 10.7 ± 2.85 | 40.2 ± 6.56 | 0.42 ± 0.9 | 0.44 | C#CCOC(=O)N[C@@H]1C(OC(C)=O)C(F)C(OC(C)=O)(C(=O)OC)OC1[C@H](OC(C)=O)[C@@H](COC(C)=O)OC(C)=O (stereo partly drawn) [SiaFPoc, Methyl 5-(propargylcarbamado)-2,4,7,8,9-penta-O-acetyl-3,5-dideoxy-3-fluoro-D-glycero-β-galacto-non-2-ulopyranosonate] | 1.19 ± 1.47 | 5.42 ± 1.4 |
| 51.8 ± 18.7 | 51.1 ± 8.97 | 5.15 ± 2.4 | 4.32 ± 1.82 | 3.33 ± 0.12 | 15.1 ± 3.7 | 24.4 ± 2.95 | 36.1 ± 6.4 | 0.5 ± 1.34 | 0.62 ± 1.77 | COC(=O)C1(OC(C)=O)OC([C@H](OC(C)=O)[C@@H](COC(C)=O)OC(C)=O)[C@H](NC(=O)OCC(C)C)C(OC(C)=O)C1F (stereo partly drawn) [SiaFiBu, Methyl 5-(isobutylcarbamado)-2,4,7,8,9-penta-O-acetyl-3,5-dideoxy-3-fluoro-D-glycero-β-galacto-non-2-ulopyranosonate] | 11.4 ± 4.73 | 9.61 ± 4.83 |
| – | – | – | – | 18 ± 2.12 | – | – | – | – | – | COC(=O)C1(OC(C)=O)OC([C@H](OC(C)=O)[C@@H](COC(C)=O)OC(C)=O)[C@H](NC(=O)CCl)C(OC(C)=O)C1F (stereo partly drawn) [SiaFAcC, Methyl 5-(chloroacetamido)-2,4,7,8,9-penta-O-acetyl-3,5-dideoxy-3-fluoro-D-glycero-β-galacto-non-2-ulopyranosonate, reference compound] | – | – |
| – | – | – | – | 7.45 ± 0.92 | 7.91 ± 1.95 | – | – | – | – | CCCCOC(=O)N[C@@H]1C(OC(C)=O)C(F)C(OC(C)=O)(C(=O)OC)OC1[C@H](OC(C)=O)[C@@H](COC(C)=O)OC(C)=O (stereo partly drawn) [SiaFnBu, Methyl 5-(butylcarbamado)-2,4,7,8,9-penta-O-acetyl-3,5-dideoxy-3-fluoro-D-glycero-β-galacto-non-2-ulopyranosonate] | – | – |
| > 102 | > 102 | 80.6 ± 3.26 | 42.2 ± 8.42 | 19.9 ± 2.08 | 32.8 ± 3.55 | > 102 | > 102 | 10.9 ± 1.98 | 13.2 ± 3.02 | COC(=O)C1(OC(C)=O)OC([C@H](OC(C)=O)[C@@H](COC(C)=O)OC(C)=O)[C@H](NC(=O)CN=[N+]=[N-])C(OC(C)=O)C1F (stereo partly drawn) [SiaFAz, Methyl 5-(azidoacetamido)-2,4,7,8,9-penta-O-acetyl-3,5-dideoxy-3-fluoro-D-glycero-β-galacto-non-2-ulopyranosonate, reference compound] | 45.6 ± 5.14 | 47.2 ± 2.89 |
| – | – | – | – | 14.5 ± 3.51 | – | – | – | – | – | COC(=O)C1(OC(C)=O)OC([C@H](OC(C)=O)[C@@H](COC(C)=O)OC(C)=O)[C@H](NC(=O)OCc2ccccc2)C(OC(C)=O)C1F (stereo partly drawn) [SiaFCbz, Methyl 5-(benzylcarbamado)-2,4,7,8,9-penta-O-acetyl-3,5-dideoxy-3-fluoro-D-glycero-β-galacto-non-2-ulopyranosonate, reference compound] | – | – |

| Structure (SMILES) | IC50 [1, 7] [µM] | IC50 [1, 8] [µM] | IC50 [3, 7] [µM] | IC50 [3, 8] [µM] | IC50 [4, 7] [µM] | IC50 [4, 8] [µM] | IC50 [5, 7] [µM] | IC50 [5, 8] [µM] | IC50 [6, 7] [µM] | IC50 [6, 8] [µM] | IC50 [2, 7] [µM] | IC50 [2, 8] [µM] |
| --- | --- | --- | --- | --- | --- | --- | --- | --- | --- | --- | --- | --- |
| COC(=O)C1(OC(C)=O)OC([C@H](OC(C)=O)[C@@H](COC(C)=O)OC(C)=O)[C@H](NC(=O)OC(C)(C)C)C(OC(C)=O)C1F (stereo partly drawn) [SiaFBoc, Methyl 5-(tert-butoxycarbamado)-2,4,7,8,9-penta-O-acetyl-3,5-dideoxy-3-fluoro-D-glycero-β-galacto-non-2-ulopyranosonate] | 54.6 ± 3.22 | 50.3 ± 3.99 | 12.8 ± 1.61 | 20.6 ± 1.95 | 3.48 ± 0.56 | 8.21 ± 0.67 | 36.5 ± 3.81 | > 102 | 1.28 ± 1.36 | 1.72 ± 2.3 | 10.4 ± 4.76 | 28 ± 2.57 |
| COC(=O)C1(OC(C)=O)OC([C@H](OC(C)=O)[C@@H](COC(C)=O)OC(C)=O)[C@H](NC(=O)COC(C)=O)C(OC(C)=O)C1F (stereo partly drawn) [SiaFGc, Methyl 5-(acetoxyamido)-2,4,7,8,9-penta-O-acetyl-3,5-dideoxy-3-fluoro-D-glycero-β-galacto-non-2-ulopyranosonate] | > 102 | > 102 | 16.6 ± 3.91 | 12.5 ± 2.52 | 4.98 ± 0.33 | 11.8 ± 2.27 | > 102 | > 102 | 4.24 ± 2 | 5.94 ± 2.18 | 53.6 ± 5.25 | 54.1 ± 15.3 |

— patent publication US11639364B2, “Potent sialyltransferase inhibitors” (STICHTING RADBOUD UNIVERSITEIT, priority 2018, dated 2023)
